One assay deals with HCT116. Nature of the assay: Cell cycle progression (propidium iodide, flow cytometry). The assay is classed as cell-based, human. As to conditions: 48 hr; for G1 / G2/M / S: HCT116. As for the experimental part: (§1) To determination of the effects of the disclosed compounds on the cell cycle, 2-3×10^5 cells were exposed to the test compounds (0-5 μM) and incubated for 48 hr prior to analysis (Table 6). Cells were trypsinized, washed with PBS and fixed in 1.5 mL 95% ethanol at 4° C. overnight, followed by incubation with RNAse and staining with propidium iodide (Sigma). The DNA content was determined by flow cytometry.
In general terms: Flow cytometry measures light scatter and fluorescence of single cells or particles in a stream.

The next assay has as its system MCF7. The assay is described as above. The assay is classed as cell-based, human. To be noted: 48 hr; for G1 / G2/M / S: MCF7. As to the method:
as §1

In the case of `O=C(O)C(F)(F)F.O=C1C(NCc2ccc(F)cc2)=CC2=NCCc3c[nH]c1c32` [Compound 28], the G1 is listed as 31.82 in the assay on HCT116 (0.5 μM); 28.40 in the assay on HCT116 (1 μM); 75.10 with MCF7 (0.1 μM); 51.97 in the assay on MCF7 (0.5 μM); 53.96 in the assay on MCF7 (1 μM). For the same compound, the G2/M is on record as 45.04 in the assay on HCT116 (0.5 μM); 38.17 with HCT116 (1 μM); 17.53 in the assay with MCF7 (0.1 μM); 20.17 in the assay with MCF7 (0.5 μM); 16.21 in the assay on MCF7 (1 μM). In addition, the S in the assay on HCT116 (0.5 μM) is 23.14; in the assay on HCT116 (1 μM), 33.43; with MCF7 (0.1 μM), 7.37; with MCF7 (0.5 μM), 27.86; in the assay with MCF7 (1 μM), 29.82. Further, the cell cycle arrest result in the assay on HCT116 (colon cancer HCT116, dose-dependent) was “cell cycle arrest in the S and G2/M phase”; in the assay with MCF7 (breast cancer (MCF-7), dose-dependent, 0-5 μM), “cell cycle arrest in the S phase”.
